# pIC50: −log10 of the molar value.
# Columns and labels:
# human recombinant HDAC1 = target: T1, human recombinant HDAC1 (Homo sapiens, UniProt Q13547); assay: HDAC1 enzyme activity inhibition assay (in vitro, fluorimetric); format: biochemical; conditions: human recombinant HDAC1, fluorimetric kit, 30° C. 60 minutes
# T1 construct: purchased Enzo Life Science BML-SE456
# In short: (§1)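 IC50 values derive from fluorescence (Ex 360, Em 460) after developer treatment (30 min) of reactions of recombinant human HDAC1 or HDAC6 with 10 μM Fluor de Lys-SIRT1 substrate (60 min, 30 °C). Compounds were serially diluted 5-fold; 0.3 μg enzyme was used for HDAC1, with HDAC6 tested identically.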
# human recombinant HDAC6 = target: T2, human recombinant HDAC6 (Homo sapiens, UniProt Q9UBN7); assay: HDAC6 enzyme activity inhibition assay (in vitro, fluorimetric); format: biochemical; conditions: for HDAC6 selectivity (fold): HDAC6 selectivity over HDAC1; for pIC50: human recombinant HDAC6, fluorimetric kit, same protocol as HDAC1
# T2 construct: purchased Calbiochem 382180
# T2 sequence (Q9UBN7 1-1215): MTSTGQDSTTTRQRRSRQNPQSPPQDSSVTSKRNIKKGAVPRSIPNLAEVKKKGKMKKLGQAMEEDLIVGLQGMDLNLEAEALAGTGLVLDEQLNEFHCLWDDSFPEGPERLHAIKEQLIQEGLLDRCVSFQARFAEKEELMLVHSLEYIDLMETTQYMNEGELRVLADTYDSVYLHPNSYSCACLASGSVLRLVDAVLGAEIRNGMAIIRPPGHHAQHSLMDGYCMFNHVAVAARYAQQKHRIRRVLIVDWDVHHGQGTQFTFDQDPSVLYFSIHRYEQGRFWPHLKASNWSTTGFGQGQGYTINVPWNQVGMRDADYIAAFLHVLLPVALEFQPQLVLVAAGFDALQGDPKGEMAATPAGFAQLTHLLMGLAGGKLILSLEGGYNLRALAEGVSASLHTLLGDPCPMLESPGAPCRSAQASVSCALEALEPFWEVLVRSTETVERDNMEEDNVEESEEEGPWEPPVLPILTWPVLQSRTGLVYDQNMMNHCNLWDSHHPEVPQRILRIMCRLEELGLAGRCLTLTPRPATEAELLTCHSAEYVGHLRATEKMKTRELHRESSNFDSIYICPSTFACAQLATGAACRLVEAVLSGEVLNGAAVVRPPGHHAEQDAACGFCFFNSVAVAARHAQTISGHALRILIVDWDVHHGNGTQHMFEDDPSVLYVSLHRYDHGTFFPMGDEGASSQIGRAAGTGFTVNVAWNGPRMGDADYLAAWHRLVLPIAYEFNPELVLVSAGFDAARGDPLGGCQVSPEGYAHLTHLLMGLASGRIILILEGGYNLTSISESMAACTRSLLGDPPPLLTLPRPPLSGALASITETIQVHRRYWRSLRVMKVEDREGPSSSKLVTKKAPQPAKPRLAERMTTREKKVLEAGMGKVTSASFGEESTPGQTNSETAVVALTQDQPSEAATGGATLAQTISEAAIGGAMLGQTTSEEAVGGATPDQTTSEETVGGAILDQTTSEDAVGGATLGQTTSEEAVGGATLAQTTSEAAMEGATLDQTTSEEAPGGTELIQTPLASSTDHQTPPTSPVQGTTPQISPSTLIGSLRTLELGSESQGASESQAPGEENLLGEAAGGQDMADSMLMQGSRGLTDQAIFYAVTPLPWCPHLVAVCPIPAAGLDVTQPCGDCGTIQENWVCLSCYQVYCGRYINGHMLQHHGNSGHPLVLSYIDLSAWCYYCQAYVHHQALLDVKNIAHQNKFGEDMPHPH
# In short: as §1
# T1 sequence (Q13547 whole entry): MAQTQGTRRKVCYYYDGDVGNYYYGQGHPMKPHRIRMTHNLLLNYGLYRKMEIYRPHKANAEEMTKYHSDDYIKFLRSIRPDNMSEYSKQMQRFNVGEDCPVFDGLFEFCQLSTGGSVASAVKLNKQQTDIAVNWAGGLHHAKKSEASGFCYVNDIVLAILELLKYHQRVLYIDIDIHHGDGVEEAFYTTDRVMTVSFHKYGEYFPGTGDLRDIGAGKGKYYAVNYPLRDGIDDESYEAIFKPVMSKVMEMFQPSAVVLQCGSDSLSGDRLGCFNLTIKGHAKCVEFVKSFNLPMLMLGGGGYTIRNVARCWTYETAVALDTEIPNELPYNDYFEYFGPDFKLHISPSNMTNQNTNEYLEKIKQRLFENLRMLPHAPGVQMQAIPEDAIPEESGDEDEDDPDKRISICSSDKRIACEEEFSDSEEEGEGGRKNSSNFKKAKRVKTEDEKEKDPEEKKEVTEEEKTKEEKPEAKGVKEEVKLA
pIC50 (human recombinant HDAC1),HDAC6 selectivity (fold) (human recombinant HDAC6),pIC50 (human recombinant HDAC6),SMILES
4.84,16 fold,6.04,"C[C@@H]1CN(C(=O)c2ccccc2C2=CCOCC2)C[C@H](C)N1Cc1ccc(C(=O)NO)cc1 [Compound 278, 4-(((2S,6R)-4-(2-(3,6-dihydro-2H-pyran-4-yl)benzoyl)-2,6-dimethylpiperazin-1-yl)methyl)-N-hydroxybenzamide]"
4.95,15 fold,6.13,"C[C@@H]1CN(CCc2ccc(C(=O)NO)cc2)C[C@H](C)N1Cc1ccccc1 [Compound 218, 4-(2-((3R,5S)-4-benzyl-3,5-dimethylpiperazin-1-yl)ethyl)-N-hydroxybenzamide]"
5.44,109 fold,7.48,"C[C@@H]1CN(Cc2ccc(C(=O)NO)cc2)C[C@H](C)N1C(=O)Nc1ccccc1 [Compound 159, (2S,6R)-4-(4-(hydroxycarbamoyl)benzyl)-2,6-dimethyl-N-phenylpiperazine-1-carboxamide]"
4.72,68 fold,6.55,"C[C@@H]1CN(Cc2ccc(C(=O)NO)cc2)C[C@H](C)N1Cc1ccncc1 [Compound 266, 4-(((3R,5S)-3,5-dimethyl-4-(pyridin-4-ylmethyl)piperazin-1-yl)methyl)-N-hydroxybenzamide]"
< 5.00,>204 fold,7.31,"C[C@@H]1CN(Cc2ccc(C(=O)NO)cc2)C[C@H](C)N1Cc1ccc(CN2CCCCC2)cc1 [Compound 467, 4-(((3R,5S)-3,5-dimethyl-4-(4-(piperidin-1-ylmethyl)benzyl)piperazin-1-yl)methyl)-N-hydroxybenzamide]"
5.21,90 fold,7.17,"C[C@@H]1CN(Cc2ccccc2)C[C@H](C)N1Cc1ccc(/C=C/C(=O)NO)cc1 [Compound 175, (E)-3-(4-(((2S,6R)-4-benzyl-2,6-dimethylpiperazin-1-yl)methyl)phenyl)-N-hydroxyacrylamide]"
< 5.00,>6 fold,5.81,"C[C@@H]1CN(Cc2ccc(C(=O)NO)nc2)C[C@H](C)N1Cc1ccccc1 [Compound 812, 5-(((3R,5S)-4-benzyl-3,5-dimethylpiperazin-1-yl)methyl)-N-hydroxypicolinamide]"
4.77,166 fold,6.99,"C[C@@H]1CN(Cc2ccc(C(=O)NO)cc2)C[C@H](C)N1Cc1ccccc1C1=CCN(CC(F)(F)F)CC1 [Compound 483, 4-(((3R,5S)-3,5-dimethyl-4-(2-(1-(2,2,2,2-trifluoroethyl)-1,2,3,6-tetrahydropyridin-4-yl)benzyl)piperazin-1-yl)methyl)-N-hydroxybenzamide]"
6.52,2 fold,6.84,"C[C@@H]1CN(Cc2ccc(C(=O)NO)cc2)C[C@H](C)N1Cc1ccccc1CN1CCOCC1 [Compound 457, 4-(((3R,5S)-3,5-dimethyl-4-(2-(morpholinomethyl)benzyl)piperazin-1-yl)methyl)-N-hydroxybenzamide]"
5.14,85 fold,7.07,"C[C@@H]1CN(Cc2ccc(CC(=O)NO)cc2)C[C@H](C)N1Cc1ccccc1 [Compound 173, 2-(4-(((3R,5S)-4-benzyl-3,5-dimethylpiperazin-1-yl)methyl)phenyl)-N-hydroxyacetamide]"
5.26,48 fold,6.95,"C[C@@H]1CN(Cc2ccccc2Cl)C[C@H](C)N1Cc1ccc(C(=O)NO)cc1 [Compound 118, 4-(((2S,6R)-4-(2-chlorobenzyl)-2,6-dimethylpiperazin-1-yl)methyl)-N-hydroxybenzamide]"

# The next lines start with the compound.
SMILES,pIC50 (human recombinant HDAC1),HDAC6 selectivity (fold) (human recombinant HDAC6),pIC50 (human recombinant HDAC6)
"C[C@@H]1CN(Cc2ccc(C(=O)NO)cc2)C[C@H](C)N1C(=O)c1ccc(Cl)cc1 [Compound 122, 4-(((3R,5S)-4-(4-chlorobenzoyl)-3,5-dimethylpiperazin-1-yl)methyl)-N-hydroxybenzamide]",5.44,717 fold,8.30
"CCN1CCN(Cc2cccc(C(=O)N3[C@H](C)CN(Cc4ccc(C(=O)NO)cc4)C[C@@H]3C)c2)CC1 [Compound 433, 4-(((3R,5S)-4-(3-((4-ethylpiperazin-1-yl)methyl)benzoyl)-3,5-dimethylpiperazin-1-yl)methyl)-N-hydroxybenzamide]",5.46,71 fold,7.31
"C[C@@H]1CN(C(=O)c2ccccn2)C[C@H](C)N1Cc1ccc(C(=O)NO)cc1 [Compound 111, 4-(((2S,6R)-2,6-dimethyl-4-picolinoylpiperazin-1-yl)methyl)-N-hydroxybenzamide]",< 5.00,>22 fold,6.34
"C[C@@H]1CN(Cc2ccc(C(=O)NO)cc2)C[C@H](C)N1C(=O)Cc1cccc(C(F)(F)F)c1 [Compound 223, 4-(((3R,5S)-3,5-dimethyl-4-(2-(3-(trifluoromethyl)phenyl)acetyl)piperazin-1-yl)methyl)-N-hydroxybenzamide]",6.05,8 fold,6.93
"C[C@@H]1CN(C(=O)Cc2cccc(C3=CCC(C)(C)CC3)c2)C[C@H](C)N1Cc1ccc(C(=O)NO)cc1 [Compound 253, 4-(((2S,6R)-4-(2-(4′,4′-dimethyl-2′,3′,4′,5′-tetrahydro-[1,1′-biphenyl]-3-yl)acetyl)-2,6-dimethylpiperazin-1-yl)methyl)-N-hydroxybenzamide]",4.65,15 fold,5.81
"C[C@@H]1CN(Cc2ccc(C(=O)NO)cc2)C[C@H](C)N1C(=O)Cc1cccc(-c2ccccc2)c1 [Compound 234, 4-(((3R,5S)-4-(2-([1,1′-biphenyl]-3-yl)acetyl)-3,5-dimethylpiperazin-1-yl)methyl)-N-hydroxybenzamide]",5.05,17 fold,6.29
"C[C@@H]1CN(C(=O)c2cccc(-c3ccoc3)c2)C[C@H](C)N1Cc1ccc(C(=O)NO)cc1 [Compound 258, 4-(((2S,6R)-4-(3-(furan-3-yl)benzoyl)-2,6-dimethylpiperazin-1-yl)methyl)-N-hydroxybenzamide]",5.77,7 fold,6.59
"CC(C)CCN1[C@H](C)CN(Cc2ccc(C(=O)NO)cc2)C[C@@H]1C [Compound 270, N-hydroxy-4-(((3R,5S)-4-isopentyl-3,5-dimethylpiperazin-1-yl)methyl)benzamide]",< 5.00,>5 fold,5.65
"C[C@@H]1CN(Cc2ccc(C(=O)NO)cc2)C[C@H](C)N1C(=O)c1ccc(CN2CCOCC2)cc1 [Compound 458, 4-(((3R,5S)-3,5-dimethyl-4-(4-(morpholinomethyl)benzoyl)piperazin-1-yl)methyl)-N-hydroxybenzamide]",5.21,21 fold,6.54
"CC(C)CC(=O)N1[C@H](C)CN(Cc2ccc(C(=O)NO)cc2)C[C@@H]1C [Compound 297, 4-(((3R,5S)-3,5-dimethyl-4-(3-methylbutanoyl)piperazin-1-yl)methyl)-N-hydroxybenzamide]",5.25,62 fold,7.05
"CCCCN(C(=O)N1C[C@@H](C)N(Cc2ccc(C(=O)NO)cc2)[C@@H](C)C1)c1ccccc1 [Compound 198, (3R,5S)-N-butyl-4-(4-(hydroxycarbamoyl)benzyl)-3,5-dimethyl-N-phenylpiperazine-1-carboxamide]",4.91,51 fold,6.62
"C[C@@H]1CN(Cc2ccc(C(=O)NO)cc2)C[C@H](C)N1C(=O)c1cnccn1 [Compound 404, 4-(((3R,5S)-3,5-dimethyl-4-(pyrazine-2-carbonyl)piperazin-1-yl)methyl)-N-hydroxybenzamide]",5.26,30 fold,6.74
